Experimental findings from publication PMC3914932, “Automated NMR Fragment Based Screening Identified a Novel Interface Blocker to the LARG/RhoA Complex” (PLoS ONE, 2014) are described below.

The test deals with T1, RhoA (Homo sapiens, UniProt P61586).
T1 construct: residues 1–193
Kind of test: […] HSQC chemical shift perturbation titration; also STD and WaterLOGSY fragment screening. Format: binding.

As usually defined, the Kd is the free concentration of one partner at which half of the binding sites on the other are occupied at equilibrium, for simple one-to-one binding.

T1 sequence (P61586 whole entry, the tested form may be a part): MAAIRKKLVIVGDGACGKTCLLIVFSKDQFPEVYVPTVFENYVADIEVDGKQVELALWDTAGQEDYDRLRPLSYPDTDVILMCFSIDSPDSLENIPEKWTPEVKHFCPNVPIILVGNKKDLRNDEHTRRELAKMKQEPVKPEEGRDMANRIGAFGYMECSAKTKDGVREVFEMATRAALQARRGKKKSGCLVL

For `c1ccc(COC2CNC2)cc1` [R1], the Kd stood at 110 µM.
